The source of these data is patent US10350164B2, “Process for preparing a dry powder formulation comprising an anticholinergic, a corticosteroid and a beta-adrenergic” (CHIESI FARMACEUTICI S.p.A., priority 2017, dated 2019).

What all share (format): physicochemical
A short description of series [1]: Particle size distribution (PSD) by Malvern analysis, initially and after open-tray exposure. The method, then:
The size of the particles active is determined by measuring the characteristic equivalent sphere diameter, known as volume diameter, by laser diffraction. […] However, other equivalent apparatus may be used.
(§1) Thin layer (˜0.5 cm) in open tray for 3 days at 30° C./65% relative humidity (RH);
(§2) Thin layer (˜0.5 cm) in open tray for 4 hours at 25° C./90% RH
(i) particle size distribution (PSD) in terms of d(v0.1), d(v0.5) and d(v0.9) by Malvern analysis, […]

Series [2] in a line: Recrystallization water by Dynamic Vapour Sorption (DVS). The method, then:
(§3) Co-micronized microparticles and reference micronized glycopyrronium bromide were exposed to the following conditions:
as §1, §2
(3) recrystallization of water using a Dynamic Vapour Sorption (DVS) instrument (Mettler Toledo GmbH, Switzerland).

The nature of series [3]: Specific Surface Area (SSA) by BET nitrogen adsorption. As for the experimental part: as §3, §1, §2
(2) Specific Surface Area (SSA) by Brunauer-Emmett-Teller (BET) nitrogen adsorption method according to a known procedure, and […]

Series [4] can be described thus: Aerosol performance by Next Generation Impactor (NGI) from multidose dry powder inhaler. Conditions: for Mid Fine Particle Mass: between 2.0 and 5.0 micron; for Fine Particle Mass: particle size equal to or lower than 5.0 micron. As for the experimental part:
It is calculated by the percentage ratio of the fine particle mass (formerly fine particle dose) to the delivered dose.
The delivered dose is calculated from the cumulative deposition in the apparatus, while the fine particle mass is calculated from the deposition of particles having a diameter <5.0 microns.
After aerosolization of 3 doses from the inhaler device, the NGI apparatus was disassembled and the amounts of drug deposited in the stages were recovered by washing with a solvent mixture and then quantified by High-Performance Liquid Chromatography (HPLC).

A short description of series [5]: Uniformity of distribution of the active ingredients in the blend by HPLC. As for the experimental part:
It is usually determined according to known methods, for instance by taking samples from different parts of the powder and testing the component by HPLC or other equivalent analytical methods.
The uniformity of distribution of the active ingredients was evaluated by withdrawing 12 samples from different parts of the blend and evaluated by HPLC.

The mark [6] stands for this setting: Open thin layer 4 hours at 25° C./90% RH.
[7] abbreviates: Open thin layer 3 days at 30° C./65% RH.
Where [8] appears, read: Example 3 formulation (6/100/12.5 μg).
Where [9] appears, read: Example 4 formulation (6/100/25 μg).

As to `C[N+]1(C)CCC(OC(=O)C(O)(c2ccccc2)C2CCCC2)C1` (racemic) [GB, glycopyrronium bromide], in series [1] (Initial), the “PSD D(v0.9)” value was found to be 3.95 μm, the “PSD d(v0.1)” value amounted to 0.60 μm and the “PSD d(v0.5)” value worked out at 1.54 μm. In addition, in series [1] (setting [6]), the “PSD D(v0.9)” value is on record as 1657 μm, the “PSD d(v0.1)” value is listed as 2.74 μm and the “PSD d(v0.5)” value was 156 μm. Also, in series [1] (setting [7]), the “PSD D(v0.9)” value turned out to be 7.59 μm, the “PSD d(v0.1)” value worked out at 1.00 μm and the “PSD d(v0.5)” value amounted to 3.91 μm. The Re-crystallization water in series [2] (Initial) came to 0.12 % w/w. This compound also registered a Re-crystallization water in series [2] (setting [7]) of 0.02% w/w. The SSA in series [3] (Initial) is on record as 7.31 m^2/g. The same compound displayed an SSA in series [3] (setting [7]) of 1.85 m^2/g. Besides, in series [4] (setting [8]), the “Extrafine Particle Fraction <1 μm” value was found to be 15.4%, the “Extrafine Particle Fraction <2 μm” value is 37.6%, the “Extrafine Particle Mass <1 μm” value is 1.8 µg and the “Extrafine Particle Mass <2 μm” value is 4.39 µg. In addition, in series [4] (setting [8]), the “Fine Particle Fraction” value is recorded as 67.2%, the MMAD worked out at 1.92 μm, the “Mid Fine particle Fraction” value amounted to 29.6% and the “Mid Fine Particle Mass” value was determined as 3.46 µg. Also, in series [4] (setting [8]), the “Fine Particle Mass” value turned out to be 7.85 µg. Also, the “Delivered Dose” value in series [4] (Example 3 formulation (6/100/12.5 μg), mean±S.D) was 11.66 (±0.4) μg. Moreover, in series [4] (setting [9]), the “Delivered Dose” value came out at 21.30 µg, the “Extrafine Particle Fraction <1 μm” value was 8.2%, the “Extrafine Particle Fraction <2 μm” value turned out to be 25.8% and the “Extrafine Particle Mass <1 μm” value worked out at 1.75 µg. Further, in series [4] (setting [9]), the “Extrafine Particle Mass <2 μm” value came out at 5.49 µg, the “Fine Particle Fraction” value is 50.7%, the MMAD was found to be 2.15 μm and the “Mid Fine particle Fraction” value was found to be 27.9%. Moreover, in series [4] (setting [9]), the “Mid Fine Particle Mass” value is 5.94 µg and the “Fine Particle Mass” value came out at 10.8 µg.
As to `CCC(=O)OCC(=O)[C@@]1(OC(=O)CC)[C@@H](C)C[C@H]2[C@@H]3CCC4=CC(=O)C=C[C@]4(C)[C@@]3(Cl)[C@@H](O)C[C@@]21C` [BDP, beclometasone dipropionate], the Uniformity of distribution in series [5] (Example 3 formulation (FF 6 μg/BDP 100 μg/GB 12.5 μg per 10 mg carrier), 12 samples, mean value±RSD) was 101.8 (±1.1); in series [5] (Example 4 formulation (FF 6 μg/BDP 100 μg/GB 25 μg per 10 mg carrier)) it was 100.2 (±1.2).
